Measured values reported in patent US10131644B2, “Aryl sultam derivatives as RORc modulators” (Genentech, Inc., priority 2014, dated 2018).

target: T1, RORc (Homo sapiens, UniProt P51449); experiment: In vitro RORc ligand binding assay (25-[3H]hydroxycholesterol displacement); conditions: IC50, IC50 values for RORc; unit inferred
T1 sequence (P51449 269-508 limits assumed): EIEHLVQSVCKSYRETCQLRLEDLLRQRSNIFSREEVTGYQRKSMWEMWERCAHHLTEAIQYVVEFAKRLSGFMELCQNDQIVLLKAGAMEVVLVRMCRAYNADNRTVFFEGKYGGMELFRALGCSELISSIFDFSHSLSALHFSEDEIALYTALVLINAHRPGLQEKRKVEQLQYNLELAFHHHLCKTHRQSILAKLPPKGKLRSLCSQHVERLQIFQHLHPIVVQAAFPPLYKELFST

| SMILES | IC50 [µM] |
| --- | --- |
| COC(=O)[C@]1(c2ccc(CN3[C@@H](C)CC[C@H](c4ccccc4)S3(=O)=O)cc2)CC[C@H](n2cnnc2)CC1 [Example 17, 1-[4-((3S,6R)-3-Methyl-1,1-dioxo-6-phenyl-[1,2]thiazinan-2-ylmethyl)-phenyl]-4-[1,2,4]triazol-4-yl-cyclohexanecarboxylic acid methyl ester] | 0.36 |
| C[C@H]1CC[C@H](c2ccccc2)S(=O)(=O)N1Cc1ccc(C2(CCO)CCOCC2)cc1F [Compound 78, 2-[4-[3-fluoro-4-[[(3S,6R)-3-methyl-1,1-dioxo-6-phenyl-thiazinan-2-yl]methyl]phenyl]tetrahydropyran-4-yl]ethanol] | 0.0137 |
| C[C@H]1CC[C@H](c2ccccc2)S(=O)(=O)N1Cc1cc(F)c(C2(C(=O)NCC#N)CC2)cc1F [Compound 128, N-(cyanomethyl)-1-[2,5-difluoro-4-[[(3S,6R)-3-methyl-1,1-dioxo-6-phenyl-thiazinan-2-yl]methyl]phenyl]cyclopropane-carboxamide] | 0.39 |
| C[C@H]1CC[C@H](c2ccccc2)S(=O)(=O)N1Cc1ccc(C2(CO)CCOCC2)cc1F [Compound 68, [4-[3-fluoro-4-[[(3S,6R)-3-methyl-1,1-dioxo-6-phenyl-thiazinan-2-yl]methyl]phenyl]tetrahydropyran-4-yl]methanol] | 0.0385 |
| C[C@H]1CC[C@H](c2ccccc2)S(=O)(=O)N1Cc1ccc(C2(O)CCS(=O)(=O)CC2)cc1F [Compound 42, (3S,6R)-2-(2-fluoro-4-(4-hydroxy-1,1-dioxidotetrahydro-2H-thiopyran-4-yl)benzyl)-3-methyl-6-phenyl-1,2-thiazinane 1,1-dioxide] | 0.19 |
| C[C@H]1CC[C@H](c2ccccc2)S(=O)(=O)N1Cc1ccc(OCC2(CS(C)(=O)=O)CCOCC2)cc1F [Example 4, (3S,6R)-2-[2-Fluoro-4-(4-methanesulfonylmethyl-tetrahydro-pyran-4-ylmethoxy)-benzyl]-3-methyl-6-phenyl-[1,2]thiazinane 1,1-dioxide] | 0.046 |
| CC(=O)N1CCC(OCC(N)=O)(c2cc(F)c(CN3[C@@H](C)CC[C@H](c4ccccc4)S3(=O)=O)cc2F)CC1 [Compound 141, 2-[[1-acetyl-4-[2,5-difluoro-4-[[(3S,6R)-3-methyl-1,1-dioxo-6-phenyl-thiazinan-2-yl]methyl]phenyl]-4-piperidyl]oxy]acetamide] | 0.026 |
| CC(=O)N1CCC(O)(c2ccc(CN3[C@@H](C)CC[C@H](c4ccccc4)S3(=O)=O)cc2)CC1 [Example 7, 1-{4-Hydroxy-4-[4-((3S,6R)-3-methyl-1,1-dioxo-6-phenyl-[1,2]thiazinan-2-ylmethyl)-phenyl]-piperidin-1-yl}-ethanone] | 0.33 |
| C[C@H]1CC[C@@H](c2ccccc2)S(=O)(=O)N1Cc1cc(F)c(C2(CO)CCC(O)CC2)cc1F (stereo partly drawn) [Compound 132] | 0.24 |
| COC(=O)[C@]1(c2ccc(CN3[C@@H](C)CC[C@H](c4ccccc4)S3(=O)=O)cc2)CC[C@@H](n2cnnc2)CC1 [Example 12, 1-[4-((3S,6R)-3-Methyl-1,1-dioxo-6-phenyl-[1,2]thiazinan-2-ylmethyl)-phenyl]-4-[1,2,4]triazol-4-yl-cyclohexanecarboxylic acid methyl ester] | 0.63 |
| CC(=O)N1CCC(OCC(O)CO)(c2cc(F)c(CN3[C@@H](C)CC[C@H](c4ccccc4)S3(=O)=O)cc2F)CC1 (stereo in doubt) [Compound 168, 1-[4-[2,5-difluoro-4-[[(3S,6R)-3-methyl-1,1-dioxo-6-phenyl-thiazinan-2-yl]methyl]phenyl]-4-[(2S)-2,3-dihydroxypropoxy]-1-piperidyl]ethanone] | 0.0355 |
| C[C@H]1CC[C@H](c2ccccc2)S(=O)(=O)N1Cc1ccc(C2(O)CCC3(CC2)OCCO3)cc1F [Compound 24, 8-[3-Fluoro-4-((3S,6R)-3-methyl-1,1-dioxo-6-phenyl-[1,2]thiazinan-2-ylmethyl)-phenyl]-1,4-dioxa-spiro[4.5]decan-8-ol] | 0.18 |
| CC(=O)N1CC(OCC(=O)O)(c2cc(F)c(CN3[C@@H](C)CC[C@H](c4ccccc4)S3(=O)=O)cc2F)C1 [Compound 136, 2-[1-acetyl-3-[2,5-difluoro-4-[[(3S,6R)-3-methyl-1,1-dioxo-6-phenyl-thiazinan-2-yl]methyl]phenyl]azetidin-3-yl]oxyacetic acid] | 0.0172 |
| CC(=O)NCCNC(=O)C1(c2ccc(CN3[C@@H](C)CC[C@H](c4ccccc4)S3(=O)=O)c(F)c2)CCOCC1 [Compound 50, N-(2-acetamidoethyl)-4-[3-fluoro-4-[[(3S,6R)-3-methyl-1,1-dioxo-6-phenyl-thiazinan-2-yl]methyl]phenyl]tetrahydropyran-4-carboxamide] | 0.25 |
| C[C@H]1CC[C@H](c2ccccc2)S(=O)(=O)N1Cc1ccc([C@]2(C(N)=O)C[C@@H](O)C2)cc1F [Compound 183, 1-[3-fluoro-4-[[(3S,6R)-3-methyl-1,1-dioxo-6-phenyl-thiazinan-2-yl]methyl]phenyl]-3-hydroxy-cyclobutanecarboxamide] | 0.0552 |
| C[C@H]1CC[C@H](c2ccccc2)S(=O)(=O)N1Cc1ccc(C2(C(N)=O)CC(F)(F)C2)cc1F [Compound 167, 3,3-difluoro-1-[3-fluoro-4-[[(3S,6R)-3-methyl-1,1-dioxo-6-phenyl-thiazinan-2-yl]methyl]phenyl]cyclobutanecarboxamide] | 0.0111 |
| C[C@H]1CC[C@H](c2ccccc2)S(=O)(=O)N1Cc1ccc([C@]2(C(=O)O)CC[C@H](n3cnnc3)CC2)cc1 [Example 13, 1-[4-((3S,6R)-3-Methyl-1,1-dioxo-6-phenyl-[1,2]thiazinan-2-ylmethyl)-phenyl]-4-[1,2,4]triazol-4-yl-cyclohexane-carboxylic acid] | 2.7 |
| C[C@H]1CC[C@H](c2ccccc2)S(=O)(=O)N1Cc1ccc(C2(N(C)CC(N)=O)CCOCC2)cc1F [Compound 188, 2-[[4-[3-fluoro-4-[[(3S,6R)-3-methyl-1,1-dioxo-6-phenyl-thiazinan-2-yl]methyl]phenyl]tetrahydropyran-4-yl]-methyl-amino]acetamide] | 0.024 |
| C[C@H]1CC[C@H](c2ccccc2)S(=O)(=O)N1Cc1ccc([C@]2(C#N)C[C@H](O)C2)cc1F [Compound 178, 1-[3-fluoro-4-[[(3S,6R)-3-methyl-1,1-dioxo-6-phenyl-thiazinan-2-yl]methyl]phenyl]-3-hydroxy-cyclobutanecarbonitrile] | 0.0441 |
| C[C@H]1CC[C@H](c2ccccc2)S(=O)(=O)N1Cc1ccc([C@]2(C#N)CC[C@@H](NC=O)CC2)cc1 [Example 19, N-{4-Cyano-4-[4-((3S,6R)-3-methyl-1,1-dioxo-6-phenyl-[1,2]thiazinan-2-ylmethyl)-phenyl]-cyclohexyl}-formamide] | 0.31 |
| COC(=O)C1(c2cc(F)c(CN3[C@@H](C)CC[C@H](c4ccccc4)S3(=O)=O)cc2F)CCC(=O)CC1 [Compound 120, methyl 1-[2,5-difluoro-4-[[(3S,6R)-3-methyl-1,1-dioxo-6-phenyl-thiazinan-2-yl]methyl]phenyl]-4-oxo-cyclohexanecarboxylate] | 0.0061 |
